Data: patent US20060069132A1, “Azolecarboxamide herbicides” (priority 2004, published 2006)
Where two headings read alike, the source gives them in different places.

Key:
[1] = system: woolly cupgrass; experiment: Test C pre-/postemergence herbicide test; type: in vivo, Eriochloa villosa; details: for Cupgrass, Woolly plant response rating: 500 g ai/ha
In short: (§1)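 Pre/post spray; non-phytotoxic solvent + surfactant. Post-timing 1–4 leaves, 2–18 cm. Read-out: visual % control vs untreated, day 12–14, greenhouse.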

[2] = system: smallflower umbrella sedge; experiment: Test C flooded paddy test; type: in vivo, Cyperus difformis
[3] = system: velvetleaf; experiment: Test A pre-/postemergence herbicide test; type: in vivo, Abutilon theophrasti
In short: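 Greenhouse injury scoring (0–100, complete control = 100) at approximately ten days follows simultaneous pre- and postemergence application. Soil received a directed spray after seeding; seedlings of 2–10 cm at the one- to two-leaf stage were sprayed to runoff.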

[4] = system: yellow nutsedge; experiment: Test C pre-/postemergence herbicide test; type: in vivo, Cyperus esculentus; details: for Nutsedge, Yellow plant response rating: 500 g ai/ha
In short: as §1

[5] = system: common ragweed; experiment: Test C pre-/postemergence herbicide test; type: in vivo, Ambrosia elatior; parameters: key to Plant response rating, Ragweed: 0 = no effect, 100 = complete control; details: for Ragweed plant response rating: 500 g ai/ha
In short: as §1

[6] = system: barnyardgrass; experiment: Test B flooded paddy test; type: in vivo, Echinochloa crus-galli; details: 1000 g ai/ha, scale 0 to 100 (0 no effect, 100 complete control); for pest or weed control at 1000 g/ha: Echinochloa crus-galli, 336 h, read-out: Barnyardgrass plant response rating
In short: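 Postemergence plants were sprayed with formulated test chemicals at 2 to 18 cm height (1- to 4-leaf stage); paddy species were grown to the 2-leaf stage. After 13 to 15 days in a greenhouse, injury was rated visually against untreated controls on a 0–100 scale (0 = no effect, 100 = complete control).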

[7] = system: cocklebur; experiment: Test B pre-/postemergence herbicide test; type: in vivo, Xanthium strumarium
In short: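 Seeds were planted and treated preemergence with compounds formulated in a non-phytotoxic solvent mixture containing surfactant, while plants at the 1- to 4-leaf stage (2 to 18 cm) received postemergence sprays. Flooded paddy plants were grown to the 2-leaf stage. After 13 to 15 days in a greenhouse, injury was visually rated 0–100 against untreated controls.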

[8] = system: goosegrass; experiment: Test C pre-/postemergence herbicide test; type: in vivo, Eleusine indica; details: for Goosegrass plant response rating: 500 g ai/ha
In short: as §1

[9] = system: rice; experiment: Test B pre-/postemergence herbicide test; type: in vivo, Oryza sativa; details: 0 = no effect, 100 = complete control; for plant injury at 125 g/ha / Rice plant response rating (0 to 100 scale): 125 g ai/ha; for plant injury at 125 g/ha: read-out: Rice plant response rating (0 to 100 scale); for Rice plant response rating (0 to 100 scale) / Plant response rating, Rice: preemergence
In short: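 Pre: seeds sown, then sprayed. Post: 1–4-leaf plants (2–18 cm) sprayed at the same time. Paddy: flooded, treated at 2-leaf stage. Formulation: non-phytotoxic solvent with surfactant. Greenhouse 13–15 days; visual 0–100 score relative to controls.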

[10] = 125 g ai/ha, scale 0 (no effect) to 100 (complete control), visual, 12 to 14 days, preemergence
[11] = 250 g ai/ha, scale 0 to 100 (0 no effect, 100 complete control), visual, 12 to 14 days, preemergence
[12] = Postemergence, 125 g ai/ha, scale 0 to 100, 0 no effect, 100 complete control
[13] = Postemergence, 250 g ai/ha, scale 0 to 100, 0 no effect, 100 complete control
[14] = Preemergence, scale 0 to 100, 0 no effect, 100 complete control
[15] = postemergence, 62 g ai/ha, scale 0 to 100
[16] = 500 g ai/ha, visual rating after 12 to 14 days, scale 0 to 100 (0 no effect, 100 complete control)
[17] = Postemergence, 2000 g ai/ha, 0 to 100 scale, 0 no effect, 100 complete control
[18] = Oryza sativa, pre-emergence, 336 h
[19] = Xanthium strumarium, post-emergence, postemergence, 125 g ai/ha, visual rating, scale 0 (no effect) to 100 (complete control), read-out: Cocklebur plant response rating
[20] = Xanthium strumarium, pre-emergence, 125 g ai/ha, 0 = no effect, 100 = complete control, read-out: Cocklebur plant response rating (0 to 100 scale)
[21] = 125 g ai/ha, scale 0 to 100 (0 no effect, 100 complete control)
[22] = Postemergence, 500 g ai/ha, 0 to 100 scale, 0 no effect, 100 complete control
[23] = Preemergence, 2000 g ai/ha, visual rating, 0 to 100 scale (0 no effect, 100 complete control)
[24] = preemergence, 500 g ai/ha, visual injury, 0 to 100 scale (0 no effect, 100 complete control)
[25] = 125 g ai/ha, 0 = no effect, 100 = complete control, preemergence
[26] = 500 g ai/ha, visual rating, 0 = no effect, 100 = complete control, preemergence
[27] = postemergence, 500 g ai/ha, scale 0 to 100, 0 is no effect, 100 is complete control

## C#CCNC(=O)c1cccc(NC(=O)c2cc(C(C)(C)C)nn2CC)c1 [Compound 47]
[1]; 62 g ai/ha, preemergence
  Plant response rating (0 = no effect, 100 = complete control), Cupgrass, Woolly: 10
[1]; [10]
  Plant response rating, Cupgrass, Woolly: 10
[1]; [11]
  Plant response rating, Cupgrass, Woolly: 60
[1]; Postemergence, scale 0 to 100
  Cupgrass, Woolly plant response rating: 80
[1]; [12]
  Plant response rating, Cupgrass, Woolly: 60
[1]; [13]
  Plant response rating, Cupgrass, Woolly: 70
[1]; [14]
  Cupgrass, Woolly plant response rating: 80
[1]; [15]
  Plant response rating, Cupgrass, Woolly: 60
[2]; 62 g ai/ha, scale 0 to 100 (0 no effect, 100 complete control)
  Sedge, Umbrella plant response rating: 30
[2]; 125 g ai/ha, scale of 0 to 100, 0 is no effect, 100 is complete control
  Sedge, Umbrella plant response rating: 70
[2]; 250 g ai/ha, visual rating after 12 to 14 days, scale 0 to 100 (0 no effect, 100 complete control)
  Plant response rating, Sedge, Umbrella: 80
[2]; [16]
  Plant response rating, Sedge, Umbrella: 80
[3]; [17]
  Plant response rating, Velvetleaf: 40
[3]; Preemergence, 500 g ai/ha, visual rating, 0 to 100 scale (0 no effect, 100 complete control)
  Velvetleaf plant response rating: 20
[3]; Preemergence, 2000 g ai/ha, 0 to 100 scale, 0 no effect, 100 complete control
  Velvetleaf plant response rating: 95
[4]; 62 g ai/ha, preemergence
  Plant response rating (0 = no effect, 100 = complete control), Nutsedge, Yellow: 0
[4]; [10]
  Plant response rating, Nutsedge, Yellow: 0
[4]; [11]
  Plant response rating, Nutsedge, Yellow: 0
[4]; Postemergence, scale 0 to 100
  Nutsedge, Yellow plant response rating: 30
[4]; [13]
  Plant response rating, Nutsedge, Yellow: 30
[4]; [14]
  Nutsedge, Yellow plant response rating: 0
[4]; [15]
  Plant response rating, Nutsedge, Yellow: 20
[5]; 62 g ai/ha, preemergence
  Plant response rating (0 = no effect, 100 = complete control), Ragweed: 80
[5]; [10]
  Plant response rating, Ragweed: 80
[5]; [11]
  Plant response rating, Ragweed: 100
[5]; Postemergence, scale 0 to 100
  Ragweed plant response rating: 90
[5]; [13]
  Plant response rating, Ragweed: 80
[5]; [14]
  Ragweed plant response rating: 100
[5]; [15]
  Plant response rating, Ragweed: 70
[6]; visual rating, 13 to 15 days
  Barnyardgrass plant response rating: 90
[7]; Postemergence, 125 g ai/ha, scale 0 (no effect) to 100 (complete control)
  Cocklebur plant response rating: 10
[7]; Postemergence, 500 g ai/ha, visual rating after 13 to 15 days, scale 0 (no effect) to 100 (complete control)
  Plant response rating, Cocklebur: 100
[7]; Preemergence, 500 g ai/ha, scale 0 to 100
  Cocklebur plant response rating: 40
[8]; 62 g ai/ha, preemergence
  Plant response rating (0 = no effect, 100 = complete control), Goosegrass: 80
[8]; [10]
  Plant response rating, Goosegrass: 100
[8]; [11]
  Plant response rating, Goosegrass: 100
[8]; Postemergence, scale 0 to 100
  Goosegrass plant response rating: 80
[8]; [12]
  Plant response rating, Goosegrass: 60
[8]; [13]
  Plant response rating, Goosegrass: 60
[8]; [14]
  Goosegrass plant response rating: 100
[8]; [15]
  Plant response rating, Goosegrass: 50

## CCc1cn(C(C)(C)C)nc1C(=O)Nc1cccc(C(=O)N(CC)CC)c1 [Compound 168, N-[3-[(diethylamino)carbonyl]phenyl]-1-(1,1-dimethylethyl)-4-ethyl-1H-pyrazole-3-carboxamide]
[9]; [18]
  plant injury at 125 g/ha: 0%
[6]; visual rating, 13 to 15 days
  pest or weed control at 1000 g/ha: 50%
[7]; Xanthium strumarium, post-emergence, postemergence, 31 g ai/ha, scale 0 to 100, read-out: Cocklebur plant response rating
  pest or weed control at 31 g/ha: 30%
[7]; [19]
  pest or weed control at 125 g/ha: 70%
[7]; [20]
  pest or weed control at 125 g/ha: 0%

## CCn1nc(C(C)(C)C)c(F)c1C(=O)Nc1cc(C(=O)N(C)C)ccc1F [Compound 276, N-[5-[(dimethylamino)carbonyl]-2-fluorophenyl]-3-(1,1-dimethylethyl)-1-ethyl-4-fluoro-1H-pyrazole-5-carboxamide]
[9]; [18]
  plant injury at 125 g/ha: 50%
[9]; Oryza sativa, pre-emergence, 336 h, 500 g ai/ha, visual rating, read-out: Plant response rating, Rice
  plant injury at 500 g/ha: 80%
[2]; Cyperus difformis, 62 g ai/ha, scale 0 to 100, read-out: Sedge, Umbrella plant response rating
  pest or weed control at 62 g/ha: 45%
[2]; Cyperus difformis, 125 g ai/ha, scale 0 to 100 (0 no effect, 100 complete control), read-out: Sedge, Umbrella plant response rating
  pest or weed control at 125 g/ha: 75%
[2]; Cyperus difformis, 250 g ai/ha, scale of 0 to 100, 0 is no effect, 100 is complete control, read-out: Sedge, Umbrella plant response rating
  pest or weed control at 250 g/ha: 80%
[2]; Cyperus difformis, 500 g ai/ha, visual rating after 12 to 14 days, scale 0 to 100 (0 no effect, 100 complete control), read-out: Plant response rating, Sedge, Umbrella
  pest or weed control at 500 g/ha: 85%
[6]
  pest or weed control at 1000 g/ha: 70%
[7]; [19]
  pest or weed control at 125 g/ha: 10%
[7]; Xanthium strumarium, post-emergence, postemergence, 500 g ai/ha, scale 0 to 100, 0 is no effect, 100 is complete control, read-out: Cocklebur plant response rating
  pest or weed control at 500 g/ha: 10%
[7]; [20]
  pest or weed control at 125 g/ha: 0%
[7]; Xanthium strumarium, pre-emergence, 500 g ai/ha, visual rating, 0 = no effect, 100 = complete control, read-out: Plant response rating, Cocklebur
  pest or weed control at 500 g/ha: 30%

## C=CCN(C)C(=O)c1cccc(NC(=O)c2cc(C(C)(C)C)nn2CC)c1 [Compound 285]
[9]
  Rice plant response rating (0 to 100 scale): 40
[9]; 500 g ai/ha, visual rating
  Plant response rating, Rice: 80
[2]; 62 g ai/ha, scale 0 to 100
  Sedge, Umbrella plant response rating: 25
[2]; [21]
  Sedge, Umbrella plant response rating: 35
[2]; 250 g ai/ha, scale of 0 to 100, 0 is no effect, 100 is complete control
  Sedge, Umbrella plant response rating: 50
[2]; [16]
  Plant response rating, Sedge, Umbrella: 65
[3]; [22]
  Velvetleaf plant response rating: 60
[3]; [17]
  Plant response rating, Velvetleaf: 75
[3]; [23]
  Velvetleaf plant response rating: 40
[3]; [24]
  Velvetleaf plant response rating: 35
[6]
  Barnyardgrass plant response rating: 90
[7]; [25]
  Cocklebur plant response rating (0 to 100 scale): 0
[7]; [26]
  Plant response rating, Cocklebur: 0
[7]; postemergence, 125 g ai/ha, visual rating, scale 0 (no effect) to 100 (complete control)
  Cocklebur plant response rating: 10
[7]; [27]
  Cocklebur plant response rating: 30

## CCOC(=O)c1cccc(NC(=O)c2cc(C(C)(C)C)nn2C)n1 [Compound 313]
[9]
  Rice plant response rating (0 to 100 scale): 20
[9]; 500 g ai/ha, visual rating
  Plant response rating, Rice: 40
[2]; 16 g ai/ha, scale 0 to 100
  Sedge, Umbrella plant response rating: 0
[2]; 31 g ai/ha, scale 0 to 100
  Sedge, Umbrella plant response rating: 0
[2]; 62 g ai/ha, scale 0 to 100
  Sedge, Umbrella plant response rating: 30
[2]; [21]
  Sedge, Umbrella plant response rating: 70
[3]; [22]
  Velvetleaf plant response rating: 40
[3]; [17]
  Plant response rating, Velvetleaf: 50
[3]; [23]
  Velvetleaf plant response rating: 80
[3]; [24]
  Velvetleaf plant response rating: 65
[6]
  Barnyardgrass plant response rating: 70
[7]; [25]
  Cocklebur plant response rating (0 to 100 scale): 0
[7]; 125 g ai/ha, visual rating, scale 0 (no effect) to 100 (complete control), postemergence
  Cocklebur plant response rating: 0
[7]; [26]
  Plant response rating, Cocklebur: 10
[7]; [27]
  Cocklebur plant response rating: 90
